Source: PubChem BioAssay (NCI)
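Cultured in 96-well plates, cells were exposed to test compound for 48 hours across five concentrations. TGI denotes the concentration required for complete inhibition of growth.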

Experiments:
Assay in all cases: NCI anticancer screen, dose series, 48 h
[1] = test system: SR leukemia
[2] = test system: KM12 colon
[3] = test system: CAKI-1 renal
[4] = test system: RXF 393 renal
[5] = test system: TK-10 renal
[6] = test system: 786-0 renal
[7] = test system: NCI-H460 lung
[8] = test system: SW-620 colon
[9] = test system: SF-295 CNS
[10] = test system: M14 melanoma
[11] = test system: XF 498 CNS
[12] = test system: CCRF-CEM leukemia
[13] = test system: EKVX NSCLC
[14] = test system: UO-31 renal
[15] = test system: HOP-62 NSCLC
[16] = test system: SNB-75 CNS
[17] = test system: RXF-631 renal
[18] = test system: NCI-H522 lung
[19] = test system: HT29 colon
[20] = test system: UACC-62 melanoma
[21] = test system: IGROV1 ovarian
[22] = test system: SK-MEL-28 melanoma
[23] = test system: U251 CNS
[24] = test system: OVCAR-4 ovarian
[25] = test system: HCC-2998 colon
[26] = test system: MALME-3M melanoma
[27] = test system: OVCAR-8 ovarian
[28] = test system: ACHN renal
[29] = test system: HCT-116 colon
[30] = test system: SK-OV-3 ovarian
[31] = test system: SK-MEL-2 melanoma
[32] = test system: A498 renal
[33] = test system: SNB-78 CNS
[34] = test system: DMS 273 small cell lung
[35] = test system: OVCAR-3 ovarian
[36] = test system: OVCAR-5 ovarian
[37] = test system: UACC-257 melanoma
[38] = test system: SF-539 CNS
[39] = test system: NCI-H23 lung
[40] = test system: SF-268 CNS
[41] = test system: NCI-H226 lung
[42] = test system: MOLT-4 leukemia
[43] = test system: HL-60(TB) leukemia
[44] = test system: SN12C renal
[45] = test system: K-562 leukemia
[46] = test system: DLD-1 colon
[47] = test system: M19-MEL melanoma
[48] = test system: HOP-92 NSCLC
[49] = test system: A549 NSCLC
[50] = test system: SNB-19 CNS
[51] = test system: LXFL 529 NSCLC
[52] = test system: HCT-15 colon
[53] = test system: RPMI-8226 leukemia
[54] = test system: DMS 114 small cell lung
[55] = test system: LOX IMVI melanoma
[56] = test system: KM20L2 colon
[57] = test system: SK-MEL-5 melanoma
[58] = test system: HOP-18 NSCLC

Measured: TGI

CCC(=O)C12OC3OC(C)(C)OC3C1OC(C)(C)O2 (stereo unspecified)
not listed: [51] | [52] | [53] | [54] | [55] | [56] | [57] | [58]
> 100 µM: all other assays above

CN(N=O)C(=O)ON1C(=O)CCC1=O
not listed: [1] | [4] | [9] | [11] | [17] | [23] | [44]
> 100 µM: all other assays above
